Test results taken from patent US4064351A, “9-OXO-15 .xi.-HYDROXY-20-ALKYLIDENEPROST-13(TRANS)-ENOIC ACID DERIVATIVES” (Sankyo Company Limited, priority 1974, dated 1977).

How the values were obtained:
[1] = tested on: gastric secretion (stomach of a male rat); assay: Inhibition of gastric secretion (tetragastrin-stimulated, perfused stomach of anesthetized rat; dose raising perfusate pH by 1.0); type: in vivo, Donryu strain); conditions: intravenous administration for 30 minutes; urethane-anesthetized rat; tetragastrine 10 μg/kg/hr
Protocol: The method employed was essentially same as described by M. N. Ghosh and H. O. Schild in British Journal of Pharmacology and Chemotherapy, vol. 13, 54-61 (1958). Through the stomach of a male rat (Donryu strain) anesthetized by administration of urethane was perfused a physiological saline solution containing a small amount of sodium hydroxide at a rate of 1 ml/min. Then 10 μg/kg/hr of a gastric secretion stimulating agent, tetragastrine, was continuously injected into the vein of said rat until pH of the outflowing perfusate reached approximately 3 and said value remained. Thereupon, a certain amount of the test compounds was administered at a certain rate into the vein for 30 minutes, and pH of the outflowing perfusate was measured. The measurement was repeated with variation of the administering amount.

[2] = tested on: bronchodilating activity in presence of a β-adrenergic blocking agent; assay: Inhibition of the bronchodilating activity by a β-adrenergic blocking agent
[3] = tested on: air-way resistance in guinea pigs; assay: Bronchodilating activity: inhibition of histamine-induced increase in air-way resistance (variant Konzett-Rossler method); type: in vivo, guinea pig; conditions: Cavia porcellus; intravenous (method; head prints i.r.); histamine 2 - 3 μg/kg i.v.; parentheses = 95% confidence limit; read-out: 50% Inhibition Dose (ID50) of increase of air-way resistance in guinea pigs
Protocol: The test compounds were administered through intravenous injection to a guinea pig (body weight: 400 - 600 g) anesthetized by administration of sodium pentobarbital, and 2 - 3 μg/kg of histamine was administered through intravenous injection. Inhibitory ratio of increase in air-way resistance was determined by the variant method of Konzett-Rossler method [Archiv fur Experimentelle Pathologie und Pharmakologie, vol. 195, 71 (1940)].

Row | SMILES | Dose needed to increase the pH of the outflowing perfusate by 1.0 [1] | inhibition of bronchodilating activity by a β-adrenergic blocking agent (in words) [2] | ED50 [3]
1 | CC(C)=CCCC(C)C[C@H](O)/C=C/[C@H]1[C@H](O)CC(=O)[C@@H]1C/C=C\CCCC(=O)O (relative stereo) [Compound B, 9-oxo-11α, 15α-dihydroxy-17β-methyl-20-isopropylideneprost-5-(cis), 13(trans)-dienoic acid] | 0.070 mg/kg/hr | – | –
2 | CC(C)=CCCC(C)CC(O)/C=C/C1C(O)CC(=O)C1CCCCCCC(=O)O (stereo not drawn) [Compound A, 9-oxo-11α,15α-dihydroxy-17β-methyl-20-isopropylideneprost-13(trans)-enoic acid] | 0.074 mg/kg/hr | – | –
3 | CC(C)NCC(O)c1ccc(O)c(O)c1 (stereo not shown) [Isoproterenol] | – | inhibits | –
4 | CC(C)(C)NCC(O)c1ccc(O)c(CO)c1 (stereo not shown) [Salbutanol] | – | inhibits | –
5 | CCCCC[C@H](O)/C=C/[C@H]1[C@H](O)CC(=O)[C@@H]1C/C=C\CCCC(=O)O [PGE2] | – | – | 0.21 µg/kg
6 | CCCCC[C@H](O)/C=C/[C@H]1[C@H](O)CC(=O)[C@@H]1CCCCCCC(=O)O [PGE1, prostaglandin E1] | 0.086 mg/kg/hr | – | 0.14 µg/kg
